This note sets out measurements from patent US9034336B2, “Immunomodulators and immunomodulator conjugates” (Regents of the University of Minnesota, priority 2011, dated 2015).

One assay addresses T1, human TLR8 (Homo sapiens, UniProt Q9NR97).
T1 construct: host or cells: HEK (HEK293) cells with NF-kB-responsive SEAP reporter
T1 sequence (Q9NR97 27-1041): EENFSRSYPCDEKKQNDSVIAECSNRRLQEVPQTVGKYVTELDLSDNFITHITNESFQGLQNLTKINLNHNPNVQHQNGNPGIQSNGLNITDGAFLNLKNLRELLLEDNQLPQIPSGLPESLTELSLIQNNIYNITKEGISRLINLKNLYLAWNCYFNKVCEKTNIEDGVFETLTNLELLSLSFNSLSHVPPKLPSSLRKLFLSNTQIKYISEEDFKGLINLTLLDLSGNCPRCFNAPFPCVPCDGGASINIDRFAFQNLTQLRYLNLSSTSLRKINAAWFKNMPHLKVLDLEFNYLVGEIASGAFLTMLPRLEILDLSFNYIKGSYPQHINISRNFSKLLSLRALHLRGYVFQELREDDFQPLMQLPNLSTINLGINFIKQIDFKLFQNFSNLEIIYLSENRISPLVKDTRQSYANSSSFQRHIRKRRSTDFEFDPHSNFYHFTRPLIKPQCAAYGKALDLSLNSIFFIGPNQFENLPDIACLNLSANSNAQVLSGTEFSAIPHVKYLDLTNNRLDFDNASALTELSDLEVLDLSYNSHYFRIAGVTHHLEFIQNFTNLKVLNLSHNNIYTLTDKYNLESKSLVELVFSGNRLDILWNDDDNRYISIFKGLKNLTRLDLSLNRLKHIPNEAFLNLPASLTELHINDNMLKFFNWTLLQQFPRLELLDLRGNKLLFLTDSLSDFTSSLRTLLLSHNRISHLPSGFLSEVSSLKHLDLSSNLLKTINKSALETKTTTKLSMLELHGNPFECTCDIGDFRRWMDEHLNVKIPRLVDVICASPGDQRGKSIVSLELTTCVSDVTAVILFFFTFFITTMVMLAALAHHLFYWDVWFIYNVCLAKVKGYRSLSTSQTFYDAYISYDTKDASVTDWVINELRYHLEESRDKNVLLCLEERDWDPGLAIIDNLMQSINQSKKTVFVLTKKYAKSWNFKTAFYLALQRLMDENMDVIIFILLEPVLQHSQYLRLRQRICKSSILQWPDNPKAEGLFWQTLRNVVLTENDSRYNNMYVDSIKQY
The experiment in a line: TLR7/8-NF-κB reporter assay (HEK-TLR8, SEAP). The class given is cell-based. The conditions noted are these: HEK-TLR8 cells, 24 hrs, read-out: EC50 of TLR8 (mean ± SD). The method, then:
(§1) Human embryonic kidney (HEK) cells that were stably transfected with human TLR7 or TLR8 and an NF-κB—responsive secreted embryonic alkaline phosphatase (SEAP) gene (HEK-TLR7/8) were purchased from InvivoGen (San Diego, Calif.). The procedure used to measure TLR7 or TLR8 agonist activity was conducted as described by Hood et al. (Hood J. D, et al., Human Vaccines, 2010, 6, 4, 322-335). Briefly, HEK-TLR7/8 cells were stimulated with 3.3 or 30 μM of compound in a 96-well plate in DMEM containing 10% FBS and 0.01% Normocin (InvivoGen) for 24 hrs. Twenty microliters of the supernatant from each well was incubated with Quanti-blue substrate solution (InvivoGen) at 37° C. for 1 hour and absorbance was read at 650 nm using a Synergy plate reader (Biotek, Winooski, Vt.).
On the technique in general: Reporter assays use an easily measured gene product as a stand-in for the process of interest.

For a further assay, the target named is T2, human TLR7 (Homo sapiens, UniProt Q9NYK1).
T2 construct: host or cells: HEK (HEK293) cells with NF-kB-responsive SEAP reporter
T2 sequence (Q9NYK1 27-1049): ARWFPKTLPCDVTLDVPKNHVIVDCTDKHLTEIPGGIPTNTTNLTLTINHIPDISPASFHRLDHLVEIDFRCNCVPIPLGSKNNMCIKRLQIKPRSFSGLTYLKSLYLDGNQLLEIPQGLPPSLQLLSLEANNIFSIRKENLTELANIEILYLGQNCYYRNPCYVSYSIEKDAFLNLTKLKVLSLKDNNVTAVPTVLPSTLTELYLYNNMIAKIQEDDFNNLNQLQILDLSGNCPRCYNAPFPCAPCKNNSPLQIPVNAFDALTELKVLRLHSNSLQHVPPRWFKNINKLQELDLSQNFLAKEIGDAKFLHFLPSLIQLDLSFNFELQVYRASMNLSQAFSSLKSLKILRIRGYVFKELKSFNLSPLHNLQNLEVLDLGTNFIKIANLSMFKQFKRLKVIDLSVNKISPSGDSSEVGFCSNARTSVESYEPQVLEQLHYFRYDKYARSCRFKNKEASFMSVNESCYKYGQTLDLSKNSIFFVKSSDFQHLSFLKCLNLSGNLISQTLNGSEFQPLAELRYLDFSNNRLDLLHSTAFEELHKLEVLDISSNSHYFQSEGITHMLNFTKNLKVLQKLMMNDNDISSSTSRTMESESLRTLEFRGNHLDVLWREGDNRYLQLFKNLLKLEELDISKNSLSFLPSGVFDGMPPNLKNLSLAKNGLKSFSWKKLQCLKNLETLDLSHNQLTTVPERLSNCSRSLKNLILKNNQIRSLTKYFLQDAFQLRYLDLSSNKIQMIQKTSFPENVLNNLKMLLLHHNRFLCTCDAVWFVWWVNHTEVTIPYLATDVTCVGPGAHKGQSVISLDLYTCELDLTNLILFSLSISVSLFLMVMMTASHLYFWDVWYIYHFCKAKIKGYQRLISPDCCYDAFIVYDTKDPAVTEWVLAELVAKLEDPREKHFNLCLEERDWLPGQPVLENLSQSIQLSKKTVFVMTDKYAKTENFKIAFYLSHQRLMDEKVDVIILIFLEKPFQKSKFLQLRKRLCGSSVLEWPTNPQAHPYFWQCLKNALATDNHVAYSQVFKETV
Nature of the assay: TLR7/8-NF-κB reporter assay (HEK-TLR7, SEAP). Type of assay: cell-based. The conditions noted are these: HEK-TLR7 cells, 24 hrs, read-out: EC50 of TLR7 (mean ± SD). The method, then: as §1

For another assay, the system named is mouse splenocytes. The experiment in a line: Inflammatory cytokine detection in splenocytes (CBA). Type of assay: cell-based, C57BL/6j mice. Here is the method:
(§2) Bone marrow cells were harvested from femurs and tibias of C57BL/6j. After red blood cells were removed with ammonium-chloride-potassium buffer, the bone marrow cells were cultured with complete RPMI-1640 medium and 2 ng/ml of granulocyte macrophage colony-stimulating factor (GM-CFS) at 5% CO2 and 37° C. for 6 days. Medium was changed twice during 6 days culture. Single cell suspension of splenocytes was prepared in the same way as one in IL-6 detection assay. BMDC or splenocytes were stimulated in triplicate with Imiquimod-derived new TLR ligand compounds, 412, 420, 421, 422, IMQ (414) and Resquimod (415) at various concentration of 20.8 nmol/ml, 5.2 nmol/ml, 1.3 nmol/ml, 0.325 nmol/ml and 0 nmol/ml. 48 hours after stimulation, the supernatants were harvested and frozen at −80° C. until detection. A cytometric bead array (CBA, BD Bioscience) was performed on inflammatory cytokines following the manufacture's instruction. 500 events were collected. Analysis of all samples was performed on FACScanto-II machine with software and further analyzed with Flowjo. Standard curves and negative control (PBS) were included for each cytokine to calculate the cytokine concentration in the samples.

The next assay deals with BMDC or splenocytes. Nature of the assay: Inflammatory cytokine detection in BMDC and splenocytes (CBA). The class given is cell-based, C57BL/6j mice. Conditions: Example 6, FIG. 23; compared to resiquimod and imiquimod. Here is the method:
as §2

Take `CCCCc1nc2c(N)nc3cc(C(=O)OC)ccc3c2n1CC(C)(C)O` [Compound 420, 4-Amino-2-butyl-1-(2-hydroxy-2-methylpropyl)-7-methoxycarbonyl-1H-imidazo[4,5-c]quinoline]: the half-maximal effective concentration (EC50) (commonly the concentration at which the effect is half-maximal) stood at 49.6 ± 1.02 µM on human TLR8 and 1.52 ± 0.07 µM on human TLR7. Moreover, the “IL-10 (anti-inflammatory) secretion” value in the assay on mouse splenocytes is “less IL-10 (anti-inflammatory) secretion compared to resiquimod”. For the same molecule, the “elaboration of proinflammatory TNFa” value in the assay with BMDC or splenocytes was “significantly greater elaboration of proinflammatory TNFa compared to the other drugs”.
